{"source": "patent US20260355199A1", "about": "“COMPOSITIONS AND METHODS FOR TREATING OR PREVENTING NONALCOHOLIC STEATOHEPATITIS (NASH), ANOREXIA, DEPRESSION, ENDOMETRIOSIS, AND OTHER DISEASES OR DISORDERS” (priority 2022, published 2026)", "key": {"TET3": {"test_system": "TET3", "assay": "TET3 protein in RAW 264.7 cells", "format": "cell-based, mouse", "conditions": "RAW 264.7, 10 μM, 24 h", "method": "For siRNA transfection in a 24-well plate scale of Raw 264.7 cells, 10 pmol of NT siRNA (AM4636, Ambion) or Tet3 siRNA (4390815/s101483, Ambion) was mixed with 100 μL of OPTI-MEM (Gibco, 31985-070) by gentle pipetting. In parallel, 3 μL of Lipofectamine RNAiMAX (Invitrogen, 13778-150) was mixed with 100 μL of OPTI-MEM by gentle pipetting. Following 5 min of incubation at RT, the two were combined and the resulting 200 μL of transfection solution was added to each well of cells. After 24 h of incubation at […] in a 5% humidified CO2 tissue culture incubator, 300 μL of growth media was added and incubation was continued until cell harvesting.\nBobcat339 Treatment of Cultured Cells Bobcat339 powder (Sigma-Aldrich, SML2611) was freshly dissolved in DMSO at a concentration of 5 mM and filtered through a 0.22 micron. Cells grown at a density of 80-90% were incubated in growth media with vehicle (DMSO) or Bobcat339 at a final concentration of 10 μM for 24 h, followed by RNA and protein extraction.\nFor TET3 expression restoration experiments, cells seeded in 24-well plates were infected with Ad-GFP or Ad-TET3 at 4000 gc/cell. Following 16 h of infection, vehicle or Bobcat339 were added at a final concentration of 10 μM. Protein and RNA were isolated 48 hours later and analyzed. […]"}, "TET3 and TET2 mRNA": {"test_system": "TET3 and TET2 mRNA", "assay": "TET3 and TET2 mRNA in human MDMs", "format": "cell-based", "parameters": "TET3 and TET2 mRNA levels: dose or concentration left out as unconfirmed", "conditions": "24 h", "method": "For siRNA transfection in a 24-well plate scale of MDMs, NT siRNA or TET3 siRNA (4392420/s47239, Ambion) was mixed with 25 μL of OPTI-MEM by gentle pipetting. In parallel, 1.5 μL of Lipofectamine RNAiMAX was mixed with 25 μL of OPTI-MEM by gentle pipetting. Following 5 min of incubation at RT, the resulting 50 μl of transfection solution was added to each well of cells containing 450 μL of growth media.\nBobcat339 Treatment of Cultured Cells Bobcat339 powder (Sigma-Aldrich, SML2611) was freshly dissolved in DMSO at a concentration of 5 mM and filtered through a 0.22 micron. […]\nFor cultured MDMs, cells were primed with CM-Endo or TGF-β1 (PeproTech, 100-21) for 36-48 h (to increase TET3 expression) before Bobcat339 treatment.\nTotal RNAs were extracted from cells using PureLink RNA Mini Kit. 0.5-1 μg total RNA was reverse transcribed to cDNA in a reaction volume of 20 μL using PrimeScript RT Reagent Kit. Real-time quantitative PCR was performed in a 15 μL reaction volume containing 0.5-1 μL of cDNA using SsoAdvanced Universal SYBR Green Supermix in a Bio-Rad iCycler. Gene expression levels were normalized against RPLP0."}, "OC-bearing mice": {"test_system": "OC-bearing mice", "assay": "Ovarian cancer (ID8-luc2)-induced anorexia model", "format": "in vivo", "conditions": "0.05 mg/mouse once a week i.p.", "description": "Furthermore, the present studies use the luciferase-expressing mouse ovarian surface epithelial cancer cell line ID8-luc2 (Liao J B et al., 2015, J Immunother Cancer, 3:16) that was originally derived from C57BL/6 mice (Roby K F et al., 2000, Carcinogenesis, 21:585-591). ID8-luc2 allow in vivo imaging of intraperitoneal tumors to monitor tumor growth (Udumula M P et al., 2021, Mol Metab., 53:101272; Liao J B et al., 2015, J Immunother Cancer, 3:16). Agrp-IRES-Cre::LSL-Cas9-GFP mice (C57BL/6 background) that express GFP specifically in AgRP neurons are used, hereafter called AgRP-GFP. […] Tumors were readily detected by bioluminescent imaging 10-14 days after inoculation (Udumula M P et al., 2021, Mol Metab., 53:101272; Liao J B et al., 2015, J Immunother Cancer, 3:16). Visible ascites (detected by abdominal swelling) developed at ~3 weeks following implantation (Roby K F et al., 2000, Carcinogenesis, 21:585-591). […] Bioluminescence signals of the tumor are recorded using the Xenogen IVIS system. Food intake is monitored manually on a daily basis and energy expenditure is measured using a computer-controlled indirect calorimetry system.\nAdditional studies test whether Bobcat339 alleviates OC-induced anorexia and hypermetabolism. […] Food intake are monitored daily and energy expenditure are determined once a week for three weeks before euthanasia. […]"}}, "note": "Entries after “also recorded” stand apart in the source; their conditions may differ."}
{"smiles": "Nc1nc(=O)n(-c2cccc(-c3ccccc3)c2)cc1Cl", "note": "[Bobcat339, 4-Amino-1-[1,1′-biphenyl]-3-yl-5-chloro-2(1H)-pyrimidinone]", "values": [{"measurement": "TET3 protein level", "setting": "TET3", "result": "decreased the levels of TET3 protein; also recorded: decreased the level of TET3; also recorded: a decrease in TET3 at the protein level"}, {"measurement": "TET3 and TET2 mRNA", "setting": "TET3 and TET2 mRNA; 10 μM", "result": "did not alter the mRNA levels of TET3 and TET2; also recorded: no significant differences in their expression"}, {"measurement": "TET3 and TET2 mRNA levels", "setting": "TET3 and TET2 mRNA", "result": "did not alter the mRNA levels of TET3 and TET2"}, {"measurement": "OC progression", "setting": "OC-bearing mice", "result": "decreased OC progression"}, {"measurement": "cancer anorexia and hypermetabolism", "setting": "OC-bearing mice", "result": "not only prevents cancer anorexia and hypermetabolism from developing but eliminates it after it is established"}]}
